# Data reported in patent publication US5242926A, “Therapeutic composition for treating hyperthyroidism” (priority 1992, dated 1993).
# “Also recorded” adds a separate entry of the source.
# Columns and labels:
# [1] = system: rat thyroid; experiment: Effect of each extracted layer of Corydalis on rat thyroid: body and thyroid weight, normal rats (Experiment 1); conditions: 50 mg/kg daily p.o., 14 days, vs control
# Description: ICR mice may be used as testing animals in this invention, each having a weight of 18-25 grams. Sprague-Dawley rats each having a weight of 240±10 grams may also be used in this invention.
# The mice or rats are placed in a metal cage by feeding 5 mice per group in each cage with solid foods and distilled water at least 1 week before performing the experiment at […] and humidity of 55±5%.
# (§1) On the 15th day, each rat is intraperitoneally injected with pentobarbital 50 mg/kg and narcotized. The rat abdominal cavity is cut to take the thyroid out for weighing and for examining pathological section, which is stained with H-E stain to facilitate observation of pathologic changes.
# [2] = system: hyperthyroidism in rats (TSH, T3, T4, FT3 and FT4 in the bloods); experiment: Effect of PBT and THP on serum TSH, T3, T4, FT3, FT4, L-T4 induced hyperthyroidism rats (Experiment 3); assay type: in vivo, female Sprague-Dawley rats
# Description: (§2) The female Sprague-Dawley rats, each weighs 260±15 grams, are divided into 5 groups of 6 rats, each rat being subcutaneously injected (s.c.) with L-T4 300 μg/kg daily for continuous 12 days to induce hyperthyroidism in each rats. […] The control group is treted with saline. After continuous treatment of 10 days as described above, each rat is injected (I.P.) with pentobarbitol 50 mg/kg and narcotized on the eleventh day, and then extracted the arterial blood for measuring concentrations of TSH, T3, T4, FT3 and FT4 in the bloods.
# [3] = system: blood cholesterol and triglyceride in rats; experiment: Effects of THP on blood cholesterol, triglyceride and T4 in L-T4 induced hyperthyroidism rats (Experiment 5); assay type: in vivo, rats (Sprague-Dawley); conditions: 10 days
# [4] = system: thyroid function of normal rats; experiment: Effect of dl-tetrahydropalmatine (THP) on thyroid function of normal rats (Experiment 4)
# Description: as §1
# The method of experiment 1 is repeated by daily treating dl-tetrahydropalmatine (THP) 2.5 mg/kg, 5.0 mg/kg and 10 mg/kg (I.P.) respectively for continuous 14 days.
# [5] = system: hyperthyroidism in rats (TSH, T3, T4, free T3 and free T4 in the serum); experiment: Serum TSH, T3, T4, FT3, FT4 by RIA, L-T4 induced hyperthyroidism rats (Experiment 2); assay type: in vivo, female Sprague-Dawley rats
# Description: The female Sprague-Dawley rats each having a weight of 250±10 grams are subcutaneously injected (S.C.) for 12 days with a daily dose of 300 μg/kg for each rat to induce hyperthyroidism. […] Then, the rat abdominal cavity is cut to extract arterial blood which is settled for 2 hours at room temperature and is centrifuged at 2500 rpm for 10 minutes for separating the serum.
# The concentrations of TSH, T3, T4, free T3 and free T4 in the serum by RIA methods.
# [6] = system: TSH, T3, T4, FT3 and FT4 in bloods; experiment: Effect of PBT and THP on serum TSH, T3, T4, FT3, FT4, normal rats (Experiment 3); assay type: in vivo, female Sprague-Dawley rats
# Description: The female Sprague-Dawley rats, each weights 270±15 grams, are divided into 5 groups of 6 rats, for following daily treatment for continuous 10 days, except a normal group for control.
# On the eleventh days, each rat is injected (I.P.) with pentobarbital 50 mg/kg and narcotized for extracting arterial blood which is settled for 2 hours at room temperature and centrifuged at 2500 rpm for 10 minutes to separate the serum. The concentrations of TSH, T3, T4, FT3 and FT4 in bloods are analyzed by RIA methods. The normal control group is treated with saline and analyzed by the same methods.
# [7] = system: thyroid follicle cells; experiment: Thyroid pathological section, H-E stain, normal rats (Experiment 1); assay type: in vivo, female Sprague-Dawley rats; conditions: 50 mg/kg daily p.o., 14 days
# [8] = system: rat thyroid, pituitary and suprarenal gland; experiment: Effect of THP on rat thyroid, pituitary and suprarenal gland weight (Experiment 6); assay type: in vivo, rats (Sprague-Dawley); conditions: PTU, 14 days
# [9] = system: blood cholesterol and triglyceride in rats; experiment: Effects of THP on blood cholesterol, triglyceride and T4 in L-T4 induced hyperthyroidism rats (Experiment 5); assay type: in vivo, rats (Sprague-Dawley); conditions: 10 days; remark: listed apart in the source
# Description: as §2
# [10] = L-T4 induced hyperthyroidism rats, PTU 5 mg/kg p.o., 10 days
# [11] = hyperthyroidism rats, PTU 5.0 mg/kg
# [12] = L-T4 induced hyperthyroidism rats, THP 5 mg/kg i.p., 10 days
# [13] = hyperthyroidism rats, THP 5 mg/kg, I.P.
# [14] = hyperthyroidism rats, THP 2.5 mg/kg i.p.
# [15] = hyperthyroidism rats, THP 5 mg/kg i.p.
# [16] = hyperthyroidism rats, THP 10.0 mg/kg i.p.
# [17] = THP 50 mg/kg [sic], i.p., 10 days
smiles,measurement,setting,value
"CCCc1cc(=O)[nH]c(=S)[nH]1 [PTU, propylthiouracil]",changes in thyroid weight (in words),[1],clearly shows an increase thyroid weight (P<0.001); also recorded: may increase thyroid weight
same,FT3,[2]; [10],2.01 ± 0.25 ng/dL
same,FT4,[2]; [10],3.24 ± 0.98 ng/dL
same,T3,[2]; [10],30.25 ± 3.25 ng/dL
same,T4,[2]; [10],1.95 ± 0.25 µg/dL
same,TSH,[2]; [10],3.98 ± 0.51 μu/ml
same,"effect on T3, T4, FT3 and FT4 (in words)","[2]; hyperthyroidism rats, PTU 5 mg/kg, P.O.","may decrease the T3 (P<0.001), T4 (P<0.001), FT3 (P<0.001) and FT4 (P<0.001)"
same,TSH,"[2]; hyperthyroidism rats, PTU 5 mg/kg, P.O., increase from 0.99±0.11, P<0.001",3.98 ± 0.51 µg/mL
same,Cholesterol,[3]; [11],73.9 ± 3.2 mg/dL
same,T4,[3]; [11],1.2 ± 0.2 µg/dL
same,Triglyceride,[3]; [11],35.6 ± 3.2 mg/dL
same,"effect on T3, T4, FT3 and FT4 (in words)",[4]; PTU,"reduces the T3, T4, FT3 and FT4"
same,effect on TSH (in words),[4]; PTU,increases the TSH concentration
same,effect on thyroid follicle cells and colloid (in words),[4]; PTU,expand thyroid follicle cells and cause colloidal loss
same,FT3,[4]; PTU 5.0 mg/kg,0.4 ± 0.1 ng/dL
same,FT4,[4]; PTU 5.0 mg/kg,0.4 ± 0.1 ng/dL
same,T3,[4]; PTU 5.0 mg/kg,31.8 ± 3.1 ng/dL
same,T4,[4]; PTU 5.0 mg/kg,0.9 ± 0.1 µg/dL
same,TSH,[4]; PTU 5.0 mg/kg,4.5 ± 0.4 μu/ml
same,"effect on T3, T4, FT3 and FT4 (in words)",[5]; PTU 5 mg/kg,"may remarkably reduce the concentrations of T3 (P <0.001), T4 (P<0.001), FT3 (P<0.01) and FT4 (P<0.001)"
same,effect on TSH (in words),[5]; PTU 5 mg/kg,remarkably increase TSH (P<0.01)
same,FT3,[5]; PTU 5 mg/kg p.o.,0.44 ± 0.02 ng/dL
same,FT4,[5]; PTU 5 mg/kg p.o.,0.47 ± 0.04 ng/dL
same,T3,[5]; PTU 5 mg/kg p.o.,17.92 ± 1.43 ng/dL
same,T4,[5]; PTU 5 mg/kg p.o.,1.11 ± 0.02 µg/dL
same,TSH,[5]; PTU 5 mg/kg p.o.,3.98 ± 0.40 µg/mL
same,"effect on T3, T4, FT3 and FT4 (in words)",[6]; PTU 5 mg/kg P.O.,"will remarkably reduce T3 (P<0.001), T4 (P<0.001), FT3 (P<0.001) and FT4 (P<0.001)"
same,TSH,"[6]; PTU 5 mg/kg P.O., increase from 2.28±0.16 μu/ml, P<0.001",4.54±0.01 μm/ml
same,FT3,"[6]; PTU 5 mg/kg p.o., 10 days",0.37 ± 0.10 ng/dL
same,FT4,"[6]; PTU 5 mg/kg p.o., 10 days",0.35 ± 0.09 ng/dL
same,T3,"[6]; PTU 5 mg/kg p.o., 10 days",31.77 ± 3.10 µg/dL
same,T4,"[6]; PTU 5 mg/kg p.o., 10 days",0.92 ± 0.14 µg/dL
same,TSH,"[6]; PTU 5 mg/kg p.o., 10 days",4.54 ± 0.41 μu/ml
same,pathologic section of the thyroid (in words),[7],"remarkable expansion of the thyroid follicle cells and their colloidal loss; also recorded: will cause the formation of follicle cells, and loss of colloid"
same,effect on follicle cells and colloid (in words),[8],expansion of follicle cells and colloidal loss
same,effect on thyroid weight (in words),[8],increase of thyroid weight
"COc1cc2c(cc1OC)C1Cc3ccc(OC)c(OC)c3CN1CC2 (racemic) [THP, dl-tetrahydropalmatine]",FT3,[2]; [12],1.42 ± 0.62 ng/dL
same,FT4,[2]; [12],5.27 ± 1.05 ng/dL
same,T3,[2]; [12],42.36 ± 4.25 ng/dL
same,T4,[2]; [12],4.91 ± 0.17 µg/dL
same,TSH,[2]; [12],0.77 ± 0.10 μu/ml
same,"effect on T3, T4, FT3 and FT4 (in words, summary)",[2]; hyperthyroidism rats,"may markedly decrease the concentration of T3, T4, FT3 and FT4"
same,"effect on TSH (in words, summary)",[2]; hyperthyroidism rats,will not influence the TSH concentration in the blood
same,"effect on T3, T4, FT3 and FT4 (in words)",[2]; [13],"will greatly reduce T3 (P<0.01), T4 (P<0.05), FT3 (P<0.01) and FT4 (P<0.01)"
same,effect on TSH (in words),[2]; [13],no remarkable influence on TSH concentration
same,pharmacological effect relative to PBT (in words),"[2]; hyperthyroidism rats, THP dosage much smaller than PBT dose",not less than that of the PBT
same,T4,[9]; THP 2.5 mg/kg i.p.,3.3 ± 0.4 µg/dL
same,T4,[9]; THP 5 mg/kg i.p.,3.1 ± 0.5 µg/dL
same,T4,[9]; THP 10.0 mg/kg i.p.,3.2 ± 0.5 µg/dL
same,effect on cholesterol compared with PTU (in words),[3]; THP i.p.,increases the cholesterol by a much smaller amount than PTU
same,Cholesterol,[3]; [14],57.5 ± 3.5 mg/dL
same,Triglyceride,[3]; [14],29.5 ± 3.5 mg/dL
same,Cholesterol,[3]; [15],58.5 ± 3.4 mg/dL
same,Triglyceride,[3]; [15],31.1 ± 5.4 mg/dL
same,Cholesterol,[3]; [16],56.5 ± 4.6 mg/dL
same,Triglyceride,[3]; [16],30.6 ± 5.1 mg/dL
same,effect on triglyceride compared with PTU (in words),"[3]; hyperthyroidism rats, THP i.p.",may reduce the triglyceride of the hyperthyroidism rats to be superior to PTU
same,FT3,"[4]; THP 2.5 mg/kg i.p., 14 days",1.3 ± 0.1 ng/dL
same,FT4,"[4]; THP 2.5 mg/kg i.p., 14 days",1.7 ± 0.5 ng/dL
same,T3,"[4]; THP 2.5 mg/kg i.p., 14 days",56.8 ± 3.1 ng/dL
same,T4,"[4]; THP 2.5 mg/kg i.p., 14 days",2.3 ± 0.5 µg/dL
same,TSH,"[4]; THP 2.5 mg/kg i.p., 14 days",1.9 ± 0.1 μu/ml
same,FT3,"[4]; THP 5.0 mg/kg i.p., 14 days",1.2 ± 0.2 ng/dL
same,FT4,"[4]; THP 5.0 mg/kg i.p., 14 days",2.1 ± 0.2 ng/dL
same,T3,"[4]; THP 5.0 mg/kg i.p., 14 days",58.8 ± 3.7 ng/dL
same,T4,"[4]; THP 5.0 mg/kg i.p., 14 days",2.5 ± 0.2 µg/dL
same,TSH,"[4]; THP 5.0 mg/kg i.p., 14 days",2.5 ± 0.4 μu/ml
same,FT4,"[4]; THP 10.0 mg/kg i.p., 14 days",1.9 ± 1.5 ng/dL
same,T3,"[4]; THP 10.0 mg/kg i.p., 14 days",49.1 ± 2.5 ng/dL
same,T4,"[4]; THP 10.0 mg/kg i.p., 14 days",2.3 ± 0.3 µg/dL
same,TSH,"[4]; THP 10.0 mg/kg i.p., 14 days",1.9 ± 0.1 μu/ml
same,"effect on T3, T4, FT3, FT4 and TSH (in words)","[4]; THP 2.5, 5.0 and 10 mg/kg i.p., 14 days","no influence on the concentrations of T3, T4, FT3, FT4 and TSH"
same,FT3,[6]; [17],1.18 ± 0.01 ng/dL
same,FT4,[6]; [17],1.97 ± 0.14 ng/dL
same,T3,[6]; [17],49.05 ± 2.45 µg/dL
same,T4,[6]; [17],2.32 ± 0.25 µg/dL
same,TSH,[6]; [17],1.89 ± 0.13 μu/ml
